These are literature values, as cited in patent US11965206B2, “Method of dosing a patient with multiple drugs using adjusted phenotypes of CYP450 enzymes” (priority 2018, dated 2024).

Like-named read-outs stand apart in the source and are kept apart here.

In data set [1] the target is CYP450 enzyme 2D6 (Homo sapiens, UniProt P10635).
Data set [2] addresses CYP450 enzyme 2C9 (Homo sapiens, UniProt P11712). The settings on record: found in drug databases.
Data set [3] has as its target T1, CYP450 enzyme 2B6 (Homo sapiens, UniProt P20813).
T1 sequence (P20813 1-491): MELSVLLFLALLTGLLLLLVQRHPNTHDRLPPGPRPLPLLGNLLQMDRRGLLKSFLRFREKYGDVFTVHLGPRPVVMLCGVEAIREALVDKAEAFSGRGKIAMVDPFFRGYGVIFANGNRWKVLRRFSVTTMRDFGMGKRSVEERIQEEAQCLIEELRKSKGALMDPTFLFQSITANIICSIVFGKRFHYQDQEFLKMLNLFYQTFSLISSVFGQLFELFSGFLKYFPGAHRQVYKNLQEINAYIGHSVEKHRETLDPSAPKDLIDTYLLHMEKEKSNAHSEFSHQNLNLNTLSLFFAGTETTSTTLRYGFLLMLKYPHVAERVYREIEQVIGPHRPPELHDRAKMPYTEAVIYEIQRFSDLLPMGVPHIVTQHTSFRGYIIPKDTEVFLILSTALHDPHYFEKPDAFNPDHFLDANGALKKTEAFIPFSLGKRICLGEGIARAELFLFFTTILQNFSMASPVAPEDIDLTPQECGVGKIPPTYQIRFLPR
The settings on record: found in drug databases.

The target of data set [4] is CYP450 enzyme 2C19 (Homo sapiens, UniProt P33261). Particulars: found in drug databases.
Data set [5] deals with CYP450 enzyme 3A4 (Homo sapiens, UniProt P08684).
CYP450 enzyme 3A4, sequence (P08684 whole entry): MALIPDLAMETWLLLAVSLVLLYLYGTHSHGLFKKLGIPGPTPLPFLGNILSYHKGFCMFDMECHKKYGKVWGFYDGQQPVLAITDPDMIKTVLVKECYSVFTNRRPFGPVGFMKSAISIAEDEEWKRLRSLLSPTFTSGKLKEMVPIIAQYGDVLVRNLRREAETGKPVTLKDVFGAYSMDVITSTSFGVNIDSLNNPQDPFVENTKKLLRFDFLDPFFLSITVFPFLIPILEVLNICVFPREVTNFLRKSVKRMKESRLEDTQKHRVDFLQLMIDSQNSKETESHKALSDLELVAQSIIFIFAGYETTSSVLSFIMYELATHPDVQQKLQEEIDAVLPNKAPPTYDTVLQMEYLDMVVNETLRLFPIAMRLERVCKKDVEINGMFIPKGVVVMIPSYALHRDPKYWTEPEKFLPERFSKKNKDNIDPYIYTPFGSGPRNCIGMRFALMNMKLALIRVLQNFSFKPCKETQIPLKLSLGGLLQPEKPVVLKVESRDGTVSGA

CYP450 enzyme 2C9, sequence (P11712 whole entry): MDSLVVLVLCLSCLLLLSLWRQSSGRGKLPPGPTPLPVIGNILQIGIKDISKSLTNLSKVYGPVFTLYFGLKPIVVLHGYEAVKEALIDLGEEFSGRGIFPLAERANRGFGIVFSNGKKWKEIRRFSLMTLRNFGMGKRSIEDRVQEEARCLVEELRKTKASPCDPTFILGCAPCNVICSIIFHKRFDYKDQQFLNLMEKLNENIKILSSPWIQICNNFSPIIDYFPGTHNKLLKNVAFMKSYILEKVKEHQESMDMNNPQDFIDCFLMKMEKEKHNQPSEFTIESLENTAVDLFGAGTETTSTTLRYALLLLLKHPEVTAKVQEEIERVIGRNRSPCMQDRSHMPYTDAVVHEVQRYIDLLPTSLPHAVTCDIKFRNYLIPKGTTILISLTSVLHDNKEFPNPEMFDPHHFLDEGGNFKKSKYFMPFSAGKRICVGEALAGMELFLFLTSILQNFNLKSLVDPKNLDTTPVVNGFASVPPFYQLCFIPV
CYP450 enzyme 2D6, sequence (P10635 whole entry): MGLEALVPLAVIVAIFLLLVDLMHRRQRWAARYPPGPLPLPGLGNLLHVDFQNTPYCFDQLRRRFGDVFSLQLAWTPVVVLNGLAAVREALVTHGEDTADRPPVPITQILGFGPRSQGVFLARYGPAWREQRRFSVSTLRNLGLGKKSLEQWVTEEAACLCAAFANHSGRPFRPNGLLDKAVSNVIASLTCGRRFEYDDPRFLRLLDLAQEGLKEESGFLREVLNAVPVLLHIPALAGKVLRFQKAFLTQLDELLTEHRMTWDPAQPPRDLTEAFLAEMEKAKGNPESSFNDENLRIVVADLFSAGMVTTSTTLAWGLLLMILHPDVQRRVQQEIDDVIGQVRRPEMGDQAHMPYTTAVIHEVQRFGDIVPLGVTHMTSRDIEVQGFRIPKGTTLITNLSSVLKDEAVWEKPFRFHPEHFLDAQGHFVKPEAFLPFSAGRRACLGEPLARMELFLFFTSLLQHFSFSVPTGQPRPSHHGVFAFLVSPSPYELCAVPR
CYP450 enzyme 2C19, sequence (P33261 whole entry): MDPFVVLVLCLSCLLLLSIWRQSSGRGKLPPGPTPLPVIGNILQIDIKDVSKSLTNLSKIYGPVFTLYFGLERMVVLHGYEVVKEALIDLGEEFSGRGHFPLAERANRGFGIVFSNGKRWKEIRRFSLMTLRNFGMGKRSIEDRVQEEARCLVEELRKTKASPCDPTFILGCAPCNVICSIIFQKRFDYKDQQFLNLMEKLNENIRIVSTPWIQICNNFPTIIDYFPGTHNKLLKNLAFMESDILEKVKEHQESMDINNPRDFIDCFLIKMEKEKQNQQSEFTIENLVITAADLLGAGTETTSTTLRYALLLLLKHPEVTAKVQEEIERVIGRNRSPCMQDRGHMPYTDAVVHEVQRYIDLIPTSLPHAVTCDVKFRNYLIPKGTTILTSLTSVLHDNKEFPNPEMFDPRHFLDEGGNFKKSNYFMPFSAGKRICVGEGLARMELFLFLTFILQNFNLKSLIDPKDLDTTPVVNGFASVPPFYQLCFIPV

With `COc1ccc([C@@H]2Sc3ccccc3N(CCN(C)C)C(=O)[C@@H]2OC(C)=O)cc1` [Diltiazem, diltiazem], the “strong, moderate or weak inhibitor of 2D6” value in data set [1] (found in drug databases) is reported as “weak inhibitor”.
For the molecule `CNCCC(Oc1ccc(C(F)(F)F)cc1)c1ccccc1` (stereo not shown) [Prozac], in data set [2], the “strong, moderate or weak inhibitor of 2C9” value was “moderate inhibitor” and the “substrate for 2C9” value is given as “substrate”. In addition, the “substrate for 2D6” value in data set [1] (found in drug databases) was “substrate”.
Consider `Fc1ccc([C@@H]2CCNC[C@H]2COc2ccc3c(c2)OCO3)cc1` [paroxetine], for which, in data set [1], the “substrate for 2D6” value is recorded as “substrate”.
As to `CCCCC1=NC2(CCCC2)C(=O)N1Cc1ccc(-c2ccccc2-c2nnn[nH]2)cc1` [Irbesartan], in data set [2], the “substrate for 2C9” value was “substrate”.
Take `O=C1CCc2ccc(OCCCCN3CCN(c4cccc(Cl)c4Cl)CC3)cc2N1` [Abilify]: the “substrate for 2D6” value in data set [1] (found in drug databases) was “substrate”.
For `O=C(CCCN1CCC(O)(c2ccc(Cl)cc2)CC1)c1ccc(F)cc1` [Haldol], in data set [1] (found in drug databases), the “strong, moderate or weak inhibitor of 2D6” value is listed as “weak inhibitor” and the “substrate for 2D6” value is “substrate”.
`COCCc1ccc(OCC(O)CNC(C)C)cc1` (stereo not shown) [metoprolol]: in data set [1] (found in drug databases), the “substrate for 2D6” value is reported as “substrate”.
`Cc1nc2n(c(=O)c1CCN1CCC(c3noc4cc(F)ccc34)CC1)CCCC2` [Risperidone]: in data set [1] (found in drug databases), the “strong, moderate or weak inhibitor of 2D6” value is recorded as “weak inhibitor” and the “substrate for 2D6” value is “substrate”.
Take `CCCC(CCC)C(=O)O` [Depakote]: in data set [2], the “strong, moderate or weak inhibitor of 2C9” value is given as “weak inhibitor” and the “substrate for 2C9” value is “substrate”. Also, the “substrate for 2B6” value in data set [3] was “substrate”. In addition, the “strong, moderate or weak inhibitor of 2C19” value in data set [4] was “weak inhibitor”.
As to `CN(C)CCC[C@@]1(c2ccc(F)cc2)OCc2cc(C#N)ccc21` [Lexapro], the “strong, moderate or weak inhibitor of 2D6” value in data set [1] (found in drug databases) is reported as “weak inhibitor”. The “substrate for 3A4” value in data set [5] was “substrate”. Further, the “substrate for 2C19” value in data set [4] is recorded as “substrate”.
